The values below come from PubChem BioAssay (NCI).

Each structure is given as a SMILES string.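 Dose response: 5 concentrations. Exposure: 48 h. Format: 96-well plates. Endpoint: linear interpolation; highest concentration if not reached. At the GI50, growth is halved. At the TGI there is no net growth.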

What all share (assay): NCI anticancer screen, dose series, 48 h
Assay [1] concerns ACHN renal.
The test system of assay [2] is K-562 leukemia.
The subject of assay [3] is KM12 colon.
For assay [4], the system named is OVCAR-5 ovarian.
For assay [5], the system named is SR leukemia.
Assay [6] concerns T-47D breast.
For assay [7], the system named is UACC-257 melanoma.
Assay [8] has as its system UACC-62 melanoma.

For the compound `CNCCCNc1nc2ccccc2c2c(=O)c3cc(OC)ccc3sc12`, the GI50 in assay [1] is 1.64 µM; in assay [2] it was 2 µM; in assay [3] it was 1.83 µM; in assay [4], 1.67 µM; in assay [5], 3.55 µM; in assay [6], 2.22 µM. Further, the results for the GI50 in assay [7] and in assay [8] were 1.99 µM and 1.76 µM, respectively. The TGI was 3 µM in assay [1]; 5.38 µM in assay [2]; 3.52 µM in assay [3]; 3.08 µM in assay [4]; above 100 µM in assay [5]; 5.61 µM in assay [6]. Besides, the TGI in assay [7] amounted to 4.15 µM; in assay [8] it was 3.27 µM.

On to `COC(=O)c1c(-c2cccs2)oc(-c2cccs2)c1C(=O)OC`, for which the GI50 was above 70.2 µM in assay [1]; 44.9 µM in assay [2]; 32.5 µM in assay [3]; above 95 µM in assay [4]; above 100 µM in assay [5]; 28.5 µM in assay [6]. In addition, the results for the GI50 in assay [7] and in assay [8] were 40.3 µM and 27.3 µM, respectively. Besides, the TGI in assay [1], in assay [2], in assay [3], in assay [4], in assay [5] and in assay [6] was above 100 µM throughout. Further, the TGI was above 95.3 µM in assay [7] and above 100 µM in assay [8].

For the compound `O=C(Nc1ccccc1I(=O)=O)C1CCCCC1`, the GI50 in assay [1] was above 100 µM; in assay [2], 56.8 µM; in assay [3], above 100 µM; in assay [4] it was above 100 µM; in assay [5] it was above 100 µM; in assay [6] it was 58.5 µM. Also, the GI50 in assay [7] and in assay [8] was above 100 µM each time. Also, the TGI in assay [1], in assay [2], in assay [3], in assay [4], in assay [5] and in assay [6] was above 100 µM each time. Further, the TGI in assay [7] and in assay [8] was above 100 µM each time.

For the compound `O=C(O)/C(Cc1cn[nH]n1)=N\O`, the TGI in assay [1], in assay [2], in assay [3], in assay [4], in assay [5] and in assay [6] was above 100 µM in each case. In addition, the TGI in assay [7] and in assay [8] was above 100 µM in each case.

For the compound `C=C1C(O)C2CC(C)(CO)C(=O)C2=C(CC(C)C)C12CC2` (stereo not given), the GI50 in assay [1] was 93.8 µM; in assay [2], 31.9 µM; in assay [3], 50.6 µM; in assay [4], above 100 µM; in assay [5], 40.8 µM; in assay [6] it was above 100 µM. The GI50 in assay [7] is 52.1 µM; in assay [8], 78.6 µM. Besides, the TGI in assay [1], in assay [2], in assay [3], in assay [4], in assay [5] and in assay [6] was above 100 µM each time. The TGI in assay [7] and in assay [8] was above 100 µM in each case.

In the case of `CCCCC#Cc1c(I)n(C)c(=O)[nH]c1=O`, the GI50 in assay [1] is 1.71 µM; in assay [2] it was 1.82 µM; in assay [3], 16 µM; in assay [4], 6.38 µM; in assay [5], 0.895 µM; in assay [6], 1.7 µM. In addition, the GI50 is 2.46 µM in assay [7] and 3.39 µM in assay [8]. Besides, the TGI in assay [1] is 3.08 µM; in assay [2], 3.46 µM; in assay [3], 29.5 µM; in assay [4], 19.2 µM; in assay [5], 2.09 µM; in assay [6], 6.96 µM. In addition, the TGI in assay [7] is 5.5 µM; in assay [8], 12.2 µM.

Consider `CSc1nc2nc3c(nc2c(=O)n1C)C(=O)c1ccccc1C3=O`, for which the GI50 is 0.299 µM in assay [1]; 0.272 µM in assay [2]; 0.278 µM in assay [3]; 0.199 µM in assay [4]; 0.332 µM in assay [5]; 0.226 µM in assay [6]. Also, the results for the GI50 in assay [7] and in assay [8] were 0.131 µM and 0.0467 µM, respectively. For the same compound, the TGI in assay [1] is 1.04 µM; in assay [2], 1.32 µM; in assay [3], 0.994 µM; in assay [4] it was 0.355 µM; in assay [5], above 100 µM; in assay [6], 0.843 µM. For the same compound, the figures for the TGI in assay [7] and in assay [8] were 0.265 µM and 0.183 µM, respectively.

On to `CCCc1cc(=O)n2c(C(=O)Nc3ccc(F)cc3)c(C(=O)Nc3ccc(F)cc3)sc2n1`, for which the GI50 in assay [1] was 17.3 µM; in assay [2], 10.6 µM; in assay [3] it was 111 µM; in assay [4], above 160 µM; in assay [5], 31.3 µM; in assay [6], 87 µM. Moreover, the GI50 in assay [7] is 20.8 µM; in assay [8] it was 36.8 µM. Also, the TGI in assay [1] was 57.7 µM; in assay [2] it was above 160 µM; in assay [3], above 160 µM; in assay [4] it was above 160 µM; in assay [5] it was 88.1 µM; in assay [6] it was above 160 µM. In addition, the TGI is 62.8 µM in assay [7] and above 160 µM in assay [8].
